Holding throughout (assay type): functional
Assay [1] has as its system Mycobacterium tuberculosis variant bovis. The assay can be described thus: Antimycobacterial activity against Mycobacterium bovis BCG ATCC 35734 assessed as growth inhibition at 10 uM after 5 days relative to control. To be noted: ATCC 35734, 120 h, read-out: GI.
Assay [2] shares this test system. The assay can be described thus: Antimycobacterial activity against Mycobacterium bovis BCG ATCC 35734 after 5 days by broth dilution method. To be noted: ATCC 35734, 120 h.
Assay [3] shares this test system. The assay can be described thus: Antimycobacterial activity against Mycobacterium bovis BCG ATCC 35734 up to 4 times MIC90 after 8 weeks.
The test system is the same in assay [4]. Description: Antimycobacterial activity against Mycobacterium bovis BCG ATCC 35734 using middlebrook 7H9 broth media supplemented with 10 % fetal bovine serum after 5 days by broth dilution method. To be noted: ATCC 35734, 120 h. (In general: Broth dilution looks for growth in wells or tubes with falling amounts of substance.)
Assay [5] has the same test system. Description: Antimycobacterial activity against Mycobacterium bovis BCG ATCC 35734 using middlebrook 7H9 broth media after 5 days by broth dilution method. To be noted: ATCC 35734, 120 h.

Each structure is given as a SMILES string. ≈ marks a conversion by molar mass, not a printed value. Calls of active or inactive are those of the source. The rule behind the calls is not given here.

Turning to `CCCCCCCCn1ccc2c(F)cccc21`, in assay [1], the inhibition of growth at 10 µM is 99%. In assay [2], this compound yielded an MIC50 greater than 50 µM and an MIC90 greater than 50 µM.
Take `CC(C)=CCC/C(C)=C/Cn1cc(CN2CCOCC2)c2cc(F)ccc21`: the inhibition of growth at 10 µM in assay [1] stood at 99%. In assay [2], this compound showed an MIC50 of 15.5 µM (≈ 5.74 µg/mL) and an MIC90 greater than 50 µM.
In the case of `CCCCCCCCn1cc(CNC23CC4CC(CC(C4)C2)C3)c2cc(OC)ccc21`, in assay [1], the inhibition of growth at 10 µM was determined as 99%. In addition, in assay [2], the MIC50 was 3 µM (≈ 1.27 µg/mL) and the MIC90 turned out to be 5 µM (≈ 2.11 µg/mL).
Consider `CCCCCCCCn1cc(CN2CCN(CC)CC2)c2cc(F)ccc21`, for which the inhibition of growth at 10 µM in assay [1] came out at 99%. Besides, in assay [2], the MIC50 was 13 µM (≈ 4.86 µg/mL) and the MIC90 is 32 µM (≈ 12 µg/mL).
For `CCCN(C)Cc1cn(C/C=C(\C)CCC=C(C)C)c2ccc(F)cc12`, in assay [1], the inhibition of growth at 10 µM was 99%. In assay [2], the MIC50 was determined as 13 µM (≈ 4.63 µg/mL) and the MIC90 amounted to 28.5 µM (≈ 10.2 µg/mL).
Turning to `Fc1ccc2c(c1)c(CN1CCCCC1)cn2CCCc1ccccc1`, the inhibition of growth at 10 µM in assay [1] stood at 99%. In assay [2], this compound returned an MIC50 of 10 µM (≈ 3.5 µg/mL) and an MIC90 of 20 µM (≈ 7.01 µg/mL).
The matching figures for `CCCCCCCCn1cc(CN2CCCCC2)c2cc(Br)ccc21`: 99%, 5 µM (≈ 2.03 µg/mL) and 9 µM (≈ 3.65 µg/mL).
With `CC(C)=CCC/C(C)=C/Cn1cc(CN2CCC3(CC2)OCCO3)c2cc(F)ccc21`, the inhibition of growth at 10 µM in assay [1] came out at 99%. In assay [2], this compound returned an MIC50 of 5 µM (≈ 2.13 µg/mL) and an MIC90 of 9 µM (≈ 3.84 µg/mL).
The matching figures for `CCCCCCCCn1cc(CN2CCCC2)c2cc(F)ccc21`: 99%, 10 µM (≈ 3.3 µg/mL) and 24 µM (≈ 7.93 µg/mL).
The matching figures for `CC(C)=CCC/C(C)=C/Cn1cc(CN2CCN(C)CC2)c2cc(F)ccc21`: 99%, 15 µM (≈ 5.75 µg/mL) and 23 µM (≈ 8.82 µg/mL).
As for `CCCCNC(=O)Cn1cc(CN2CCCCC2)c2cc(F)ccc21`, in assay [1], the inhibition of growth at 10 µM turned out to be 99%. In assay [2], the MIC50 was greater than 50 µM and the MIC90 is greater than 50 µM.
For `CCCCCCCCn1cc(CNC23CC4CC(CC(C4)C2)C3)c2ccc(OC)cc21`, the inhibition of growth at 10 µM in assay [1] amounted to 99%. Moreover, in assay [2], the MIC50 turned out to be 3 µM (≈ 1.27 µg/mL) and the MIC90 was found to be 6 µM (≈ 2.54 µg/mL).
The matching figures for `CCCCCCCCn1cc(CN2CCC3(CC2)OCCO3)c2cccc(OC)c21`: 99%, 28 µM (≈ 11.6 µg/mL) and 42 µM (≈ 17.4 µg/mL).
As to `CCn1cc(CN2CCCCCC2)c2c(F)cccc21`, the inhibition of growth at 10 µM in assay [1] stood at 99%. In assay [2], this compound registered an MIC50 greater than 50 µM and an MIC90 greater than 50 µM.
Regarding `NNC(=O)c1ccncc1`, in assay [3], the result was inactive.
Turning to `CCCCCCCCn1cc(CNC23CC4CC(CC(C4)C2)C3)c2cc(F)ccc21`, the inhibition of growth at 10 µM in assay [1] came out at 99%. In assay [2], this compound came in with an MIC50 of 2.5 to 3 µM (≈ 1.03 to 1.23 µg/mL) and an MIC90 of 5.5 to 6 µM (≈ 2.26 to 2.46 µg/mL).
Take `CCCCCCCCn1cc(CN2CCCCC2)c2ccc(F)cc21`: the inhibition of growth at 10 µM in assay [1] was determined as 99%. Also, in assay [2], the MIC50 was found to be 6 µM (≈ 2.07 µg/mL) and the MIC90 turned out to be 12 µM (≈ 4.13 µg/mL).
The matching figures for `CCCCCCCCn1cc(CN(C)C)c2cc(F)ccc21`: 99%, 14 µM (≈ 4.26 µg/mL) and 20 µM (≈ 6.09 µg/mL).
As for `CCCCCCn1cc(CN2CCCCCC2)c2c(F)cccc21`, the inhibition of growth at 10 µM in assay [1] was 99%. In addition, in assay [2], the MIC50 was found to be 8 µM (≈ 2.64 µg/mL) and the MIC90 was 13 µM (≈ 4.3 µg/mL).
With `CCCCCCCCn1cc(CN2CCC3(CC2)OCCO3)c2cccc(F)c21`, the inhibition of growth at 10 µM in assay [1] was found to be 99%. In assay [2], this compound gave an MIC50 of 3 µM (≈ 1.21 µg/mL) and an MIC90 of 7 µM (≈ 2.82 µg/mL).
The matching figures for `CCCCCCCCn1cc(CN2CCCCCC2)c2cccc(F)c21`: 99%, 5 µM (≈ 1.79 µg/mL) and 8 µM (≈ 2.87 µg/mL).
The matching figures for `CC(C)=CCC/C(C)=C/Cn1cc(CN2CCCCC2)c2cccnc21`: 99%, greater than 50 µM and greater than 50 µM.
The matching figures for `CCCCCCCCn1cc(CNC23CC4CC(CC(C4)C2)C3)c2cccc(F)c21`: 99%, 3 µM (≈ 1.23 µg/mL) and 5 µM (≈ 2.05 µg/mL).
Regarding `CC(C)=CCC/C(C)=C/Cn1cc(CN2CCCCC2)c2cc(F)ccc21`, the inhibition of growth at 10 µM in assay [1] stood at 99%. In addition, in assay [2], the MIC50 worked out at 5 µM (≈ 1.84 µg/mL) and the MIC90 was 11 µM (≈ 4.05 µg/mL).
In the case of `CC(C)=CCC/C(C)=C/Cn1cc(CNC23CC4CC(CC(C4)C2)C3)c2cc(F)ccc21`, the inhibition of growth at 10 µM in assay [1] turned out to be 99%. Also, in assay [2], the MIC50 was found to be 17.5 µM (≈ 7.61 µg/mL) and the MIC90 amounted to 25.5 µM (≈ 11.1 µg/mL).
Consider `CCCN(CCC)Cc1cn(C/C=C(\C)CCC=C(C)C)c2ccc(F)cc12`, for which, in assay [1], the inhibition of growth at 10 µM worked out at 99%. For the same compound, in assay [2], the MIC50 is 18 µM (≈ 6.92 µg/mL) and the MIC90 amounted to 39 µM (≈ 15 µg/mL).
For `CCCCCCCCn1cc(CNC2CC2)c2cc(F)ccc21`, in assay [1], the inhibition of growth at 10 µM came to 99%. Besides, in assay [2], the MIC50 was 11 µM (≈ 3.48 µg/mL) and the MIC90 was found to be 27 µM (≈ 8.54 µg/mL).
The matching figures for `Fc1ccc2[nH]cc(CN3CCCCC3)c2c1`: 99%, greater than 50 µM and greater than 50 µM.
The matching figures for `CCCCCCCCn1cc(CN2CCCCC2)c2cccc(OC)c21`: 99%, 8 µM (≈ 2.85 µg/mL) and 11 µM (≈ 3.92 µg/mL).
For `CCCCCCCCn1cc(CN2CCN(C)CC2)c2cc(F)ccc21`, the inhibition of growth at 10 µM in assay [1] turned out to be 99%. Besides, in assay [2], the MIC50 turned out to be 13 µM (≈ 4.67 µg/mL) and the MIC90 amounted to 36 µM (≈ 12.9 µg/mL).
The matching figures for `CC(C)=CCC/C(C)=C/Cn1cc(CN2CCCCC2)c2cc(Cl)ccc21`: 99%, 7 µM (≈ 2.69 µg/mL) and 10 µM (≈ 3.85 µg/mL).
The matching figures for `CCCCCCCCn1cc(CN2CCC(C)CC2)c2cc(OC)ccc21`: 99%, 4 µM (≈ 1.48 µg/mL) and 6 µM (≈ 2.22 µg/mL).
Consider `CCCCN(CCCC)Cc1cn(C/C=C(\C)CCC=C(C)C)c2ccc(F)cc12`, for which the inhibition of growth at 10 µM in assay [1] worked out at 99%. Further, in assay [2], the MIC50 worked out at 13 µM (≈ 5.36 µg/mL) and the MIC90 amounted to 25.5 µM (≈ 10.5 µg/mL).
The matching figures for `CCCCCCCCn1cc(CN2CCCCC2)c2cc(Cl)ccc21`: 99%, 5 µM (≈ 1.8 µg/mL) and 9 µM (≈ 3.25 µg/mL).
With `CCCCCCCCn1cc(CN2CCC(C)CC2)c2ccc(F)cc21`, the inhibition of growth at 10 µM in assay [1] came to 99%. In assay [2], the MIC50 is 4 µM (≈ 1.43 µg/mL) and the MIC90 turned out to be 5 µM (≈ 1.79 µg/mL).
As for `CCCCCCCCn1cc(CN2CCC(C)CC2)c2cccc(OC)c21`, the inhibition of growth at 10 µM in assay [1] is 99%. In addition, in assay [2], the MIC50 came out at 4 µM (≈ 1.48 µg/mL) and the MIC90 was 8 µM (≈ 2.96 µg/mL).
With `CCCCCCCCn1cc(CN2CCC3(CC2)OCCO3)c2ccc(OC)cc21`, the MIC50 in assay [4] worked out at 2.5 µM (≈ 1.04 µg/mL); in assay [2], 2 µM (≈ 0.829 µg/mL); in assay [5] it was 2.1 µM (≈ 0.871 µg/mL). For the same compound, the inhibition of growth at 10 µM in assay [1] is 99%. Also, the MIC90 in assay [2] stood at 4 µM (≈ 1.66 µg/mL).
On to `CC(C)=CCC/C(C)=C/Cn1ccc2cc(F)ccc21`, for which, in assay [1], the inhibition of growth at 10 µM turned out to be 99%. In assay [2], this compound gave an MIC50 greater than 50 µM and an MIC90 greater than 50 µM.
For `CCCCCCCCn1cc(CN2CCOCC2)c2cc(F)ccc21`, the inhibition of growth at 10 µM in assay [1] is 99%. In addition, in assay [2], the MIC50 was 16 µM (≈ 5.54 µg/mL) and the MIC90 was greater than 50 µM.
Turning to `CCCCCCCCn1cc(CNCCC)c2cc(F)ccc21`, in assay [1], the inhibition of growth at 10 µM was found to be 99%. In assay [2], this compound registered an MIC50 of 10 µM (≈ 3.18 µg/mL) and an MIC90 of 20 µM (≈ 6.37 µg/mL).
For the compound `CCCCCCCCn1cc(CNC23CC4CC(CC(C4)C2)C3)c2c(F)cccc21`, in assay [1], the inhibition of growth at 10 µM was found to be 99%. In assay [2], this compound displayed an MIC50 of 2 µM (≈ 0.821 µg/mL) and an MIC90 of 3 µM (≈ 1.23 µg/mL).
The matching figures for `CCCCCCCCn1cc(CN(CCCC)CCCC)c2cc(F)ccc21`: 99%, 11 µM (≈ 4.27 µg/mL) and greater than 50 µM.
`CCCCCCCCn1cc(CN(CCC)CCC)c2cc(F)ccc21`: the inhibition of growth at 10 µM in assay [1] worked out at 99%. In assay [2], this compound had an MIC50 of 11 µM (≈ 3.97 µg/mL) and an MIC90 of 35 µM (≈ 12.6 µg/mL).
The matching figures for `CC(C)=CCC/C(C)=C/Cn1cc(CN2CCCCC2)c2ccccc21`: 99%, 3 µM (≈ 1.05 µg/mL) and 6 µM (≈ 2.1 µg/mL).
Consider `CCCCCCCCn1cc(CN2CCCCC2)c2ccccc21`, for which, in assay [1], the inhibition of growth at 10 µM is 99%. Also, in assay [2], the MIC50 came out at 14 µM (≈ 4.57 µg/mL) and the MIC90 came to 31 µM (≈ 10.1 µg/mL).
The matching figures for `CCCCCCCCn1cc(CN2CCCCC2)c2cccc(F)c21`: 99%, 8 µM (≈ 2.76 µg/mL) and 11 µM (≈ 3.79 µg/mL).
The matching figures for `CCCCCCCCn1cc(CNC23CC4CC(CC(C4)C2)C3)c2c(OC)cccc21`: 99%, 6 µM (≈ 2.54 µg/mL) and 12 µM (≈ 5.07 µg/mL).
The matching figures for `CC(C)=CCC/C(C)=C/Cn1cc(CNC2CCCC2)c2cc(F)ccc21`: 99%, 8 µM (≈ 2.95 µg/mL) and 14 µM (≈ 5.16 µg/mL).

By MIC50 is commonly meant the lowest concentration that inhibits either 50% of growth or 50% of the strains tested, depending on the study. As usually defined, the MIC90 is the lowest concentration that inhibits either 90% of growth or 90% of the strains tested, depending on the study.
